Experimental data as given in patent publication US7563946B2, “Plant development regulating gene and its uses” (CropDesign, N.V., priority 2000, dated 2009).

Assays:
DR5::GUS [1] = assay: Auxin sensitivity test, DR5::GUS expression in wildtype seedlings; format: in vivo, Arabidopsis thaliana; conditions: 3 days on medium
Text: (§1) However, new methods to detect auxin responses have emerged, for example with synthetic auxin responsive promoter elements binding ARF transcription factors, such as DR5::GUS (Ulmasov et al., 1997). Since there is also a resemblance of the hbt early embryo phenotype to axr6, bdl and mp mutants (Hardtke and Berleth, 1998; Hamann et al., 1999; Hobbie et al 2000), we used the DR5::GUS construct to re-investigated auxin responses in hbt seedlings. In wildtype seedling roots there is a maximum of DR5::GUS staining in the upper part of the columella (FIG. 17A). This peak is absent in hbt seedlings (FIG. 17F) where no GUS staining is visible. Since the specification of the columella cells is defective in hbt seedlings, we wanted to know whether hbt mutant cells are capable of sensing auxin. Therefore, hbt seedlings were incubated for 3 days on media containing different concentrations of the synthetic auxin 2,4 D, and DR5::GUS expression was analysed. […] It is therefore possible that the HBT gene has a role in the perception of auxin levels.
(§2) DR5::GUS expression in wt roots (A-E) and in hbt seedlings […]. Three days post germination seedlings were transferred to 0.5 GM plates (A and F) and 0.5 GM plates containing 10^−9 M 2,4 D (B and G), 10^−8 M 2,4 D (C and H), 10^−7 M 2,4 D (D and I) and 10^−6 M 2,4 D (E and J) and incubated for another three days. Mutants are shown at 10× magnification of the wildtype seedling.
(§3) DR5::GUS constructs was used (Ulmasov et al., 1997b). Seedlings were germinated on 0.5 GM medium as described, 3 dpg transferred to fresh 0.5 GM plates containing different concentrations of 2,4 D or IAA (5.10^−9 M until 5.10^−6 M) (see FIG. 17) and incubated for an additional 3 days. After that the b-glucuronidase was visualized as described (Willemsen et al., 1998).

DR5::GUS [2] = assay: Auxin sensitivity test, DR5::GUS expression in hbt mutant seedlings; format: in vivo, Arabidopsis thaliana
Text: as §1, §2, §3

hbt seedlings = hbt seedlings treated with ethylene

Row | Compound | DR5::GUS expression in wildtype hypocotyls (DR5::GUS [1]; 5.10^-6 M) | DR5::GUS expression in wildtype root (DR5::GUS [1]; 5.10^-7 M) | DR5::GUS expression in wildtype roots (DR5::GUS [1]; 5.10^-9 M until 5.10^-8 M) | DR5::GUS expression in hbt hypocotyls (DR5::GUS [2]; 5.10^-6 M, 3 days on medium) | DR5::GUS expression in hbt root pole (DR5::GUS [2]; 5.10^-7 M, 3 days on medium) | DR5::GUS staining in hbt seedlings (DR5::GUS [2]; 5.10^-9 M until 5.10^-8 M, 3 days on medium) | DR5::GUS expression in hbt embryos compared to wildtype (DR5::GUS [2]; embryos, after induction) | Auxin sensitivity of hbt seedlings (synthetic auxin response element) (DR5::GUS [2]; hbt seedlings versus wildtype) | Re-specification of epidermal cells on the hypocotyl (hbt seedlings)
1 | O=C(O)COc1ccc(Cl)cc1Cl [2,4 D] | never observed any ectopic DR5 expression | quite intense and throughout the entire root | ectopic expression of the DR5::GUS promoter in the meristem of wildtype roots | strong DR5 expression | a DR5 peak in the root pole of hbt | no staining observed | no differences compared to wildtype | altered auxin sensitivity | –
2 | C=C [ethylene] | – | – | – | – | – | – | – | – | a large number of ectopic outgrowths was induced
